In patent US6133322A, “Quinone derivatives for treating or preventing diseases associated with iron overload” (Institut National de la Sante et de la Recherche Medicale …, priority 1998, dated 2000):

Experiments:
membrane lipids = assay: Iron-induced peroxidation of membrane lipids (cis-parinaric acid fluorescent probe) in human heart homogenates; type: biochemical; conditions: for iron-induced damages of the membrane components (in words): in vitro system, summary; for peroxidation of membrane lipids (in words): FIG. 1A, iron form added to heart homogenate
Description: (§1) Human heart homogenates were used as an in vitro model to mimic the action of iron on mitochondrial ISPs and to test the potentially protective effect of various substances.
(§2) These homogenates were prepared under low iron-chelating conditions using the procedures described in Rustin P. et al., Biochemical and molecular investigations in respiratory chain deficiencies, Clin. Chim. Acta., 228, 35-51 (1994). Briefly, homogenate from frozen human heart was obtained surgically and prepared at ice-melting temperature in a 0.1 M Tris-HCI buffer (pH 7.3) by five strokes of hand-driven ground glass potter using the procedures described in Sanchez-Casis et al., Pathology of the heart in Friedreich's ataxia: review of the literature and report of one case, Can. J. Neurol. Sci., 3, 349-354 (1977). After filtering through a 90 μm nylon net, homogenate was sampled and frozen at -80° C. for enzyme studies.
(§3) The endogenous antioxidant defenses of heart mitochondria were neutralized by simple dilution, and free access of iron to its specific targets was achieved by freeze-thaw disrupting mitochondrial membranes.
Lipoperoxidation, a marker of non-specific peroxidative damages caused to membrane components, was monitored in the presence of either reduced or oxidized iron. Cis-parinaric acid (c-PN) was used as a fluorescent probe for lipoperoxidation (15,16). Measurements were performed in a 37° C. thermostated quartz cell, magnetically stirred, and containing 2 ml 0.1 M Tris-HCI buffer (pH 7.3) using a LS540B Spectrofluorimeter (Perkin-Elmer, England). Excitation: 318 nm; 5 nm band-pass Emission: 410 nm; 5 nm band-pass.
(§4) Lipids peroxidation, complex II activity, and aconitase activity were monitored according to the methods of example 1 above.

aconitases = assay: Aconitase activity (aconitate accumulation at 240 nm in the presence of citrate) in human heart homogenate; type: biochemical; conditions: for Iron-induced damages to: Aconitases: 5 nM Fe^2+ + 2 nM EDTA + 6 U of the one enzyme
Description: as §1, §2, §3
(§5) The activities of two enzymes specifically targeted in FRDA, namely membrane-bound respiratory chain complex II and soluble (mitochondrial plus cytosolic) aconitases, were monitored under either low or high iron chelating conditions, in the presence of either reduced or oxidized iron. Complex II activity was measured on freeze-thaw heart homogenate as the dichlorophenolindophenol quinone reductase (DCPIP) (14). Aconitase activity in heart homogenate, corresponding to the combined mitochondrial and cytosolic enzyme activities, was measured by following the aconitate accumulation at 240 nm in the presence of citrate (6). All measurements were performed using a DW2000 Aminco Spectrophotometer (SLM, USA) in a 37° C. thermostated quartz cell, magnetically stirred, and containing 2 ml 0.1 M Tris-HCI buffer (pH 7.3).
as §4
Aconitase was assayed after additional 3 min incubation with 250 μM desferrixamine. Trace b: Aconitase activity measured after 6 min incubation in Tris-HCI buffer containing 250 μM desferrioxamine in the absence of Fe^2+.

complex II = assay: Complex II activity (succinate quinone DCPIP reductase) in freeze-thaw human heart homogenate; type: biochemical; conditions: for protection of complex II from iron induced damages (in words): succinate alone or 60 μM oxidized idebenone alone, FIG. 2C traces a, b
Description: as §1, §2, §3, §5, §4

FRDA patients = assay: Idebenone administration in FRDA patients: cardiac hypertrophy and cerebellar ataxia; type: in vivo, human
Description: Based on the previous in vitro data and owing to the innocuousness of the drug, five children ranging in age from 71/2 to 14 years and two young adults, all diagnosed with FDRA, were given idebenone orally (5 mg/kg/day).
The results observed after a course of treatment ranging from about 4 to about 9 months of administration at this dosage, are shown in FIG. 3:
A) Follow up of heart ultrasound parameters in patients 1, 6 and 7. LV: left ventricle. Note the decreased septal and left ventricle posterior wall thickness;
B) changes in cerebellar ataxia noted by parents and uninformed teachers. ®: Unchanged; : decrease; 0: No initial involvement.

[1] = 5 nM Fe^2+ + 50 μM quinone, no succinate
[2] = 5 nM Fe^2+ + 10 mM succinate + 50 μM quinone
[3] = idebenone orally 5 mg/kg/day, about 4 to about 9 months
[4] = noted by the parents and uninformed teachers
[5] = quinone reduced in situ by the respiratory chain (succinate)

## COC1=C(OC)C(=O)C(CC=C(C)CCC=C(C)CCC=C(C)CCC=C(C)C)=C(C)C1=O [CoQ4]
Membrane lipids; [1]
  Iron-induced damages to: Lipids: -74 ± 3%
Membrane lipids; [2]
  Iron-induced damages to: Lipids: -1 ± 1%

## COC1=C(OC)C(=O)C(CC=C(C)CCC=C(C)CCC=C(C)CCC=C(C)CCC=C(C)CCC=C(C)CCC=C(C)CCC=C(C)CCC=C(C)CCC=C(C)C)=C(C)C1=O [CoQ10]
aconitases; 3 min with 5 nM Fe^2+ + 8 μM CoQ10 without succinate, then 3 min 250 μM desferrioxamine, FIG. 2D trace c
  decrease of aconitase activity: 77%
Membrane lipids; [1]
  Iron-induced damages to: Lipids: -66 ± 2%
Membrane lipids; [2]
  Iron-induced damages to: Lipids: -1 ± 0.4%
Membrane lipids; 8 μM CoQ10 reduced in situ by 3 min incubation with 10 mM succinate, FIG. 2B trace b
  protection against iron-induced lipoperoxidation (in words): full protection
Membrane lipids; 8 μM oxidized CoQ10, absence of succinate, FIG. 2B trace a
  protection against iron-induced lipoperoxidation (in words): did not protect from iron-induced lipoperoxidation

## O=C(O)CN(CCN(CC(=O)O)CC(=O)O)CC(=O)O [EDTA]
Membrane lipids; 5 nM Fe^2+ + 2 nM EDTA
  Iron-induced damages to: Lipids: -2 ± 1%
Complex II; 1 nM EDTA added to the iron-supplemented (5 nM reduced iron) medium, FIG. 1B trace b
  protection of complex II activity (in words): fully protected

## O=C1O[C@H]([C@@H](O)CO)C(O)=C1O [ascorbate]
Membrane lipids
  iron-induced damages of the membrane components (in words): enhancing these damages

## CC(=O)N(O)CCCCCNC(=O)CCC(=O)N(O)CCCCCNC(=O)CCC(=O)N(O)CCCCCN [desferrioxamine]
aconitases; 200 μM desferrioxamine alone, 6 min pre-incubation, no Fe^2+, FIG. 2D trace b
  decrease in aconitase activity (in words): no decrease in enzyme activity
aconitases; 250 μM desferrioxamine + 5 nM reduced iron, FIG. 1C trace d
  loss of aconitase activity: 80%
aconitases; desferrioxamine in the absence of iron, FIG. 1C trace c
  inhibition of aconitase activity (in words): No inhibition of aconitase activity
Membrane lipids; 5 nM Fe^2+ + 120 μM desferrioxamine
  Iron-induced damages to: Lipids: 0 ± 1%

## N[C@@H](CCC(=O)N[C@@H](CS)C(=O)NCC(=O)O)C(=O)O [glutathione]
Membrane lipids
  iron-induced damages of the membrane components (in words): enhancing these damages

## COC1=C(OC)C(=O)C(CCCCCCCCCCO)=C(C)C1=O [idebenone, 6-(10-hydroxydecyl)-2,3-dimethoxy-5-methyl-1,4-benzoquinone]
aconitases; Table 2
  prevention of the loss of aconitase activity induced by water-soluble chelators in the presence of reduced iron (in words): neither succinate nor idebenone nor succinate+idebenone prevents the loss of aconitase activity
FRDA patients; 4 to 9 month regime, five FRDA patients
  myocardial hypertrophy (in words): significant decrease
FRDA patients; after a 9 month course
  deep tendon reflexes (in words): have not reappeared
FRDA patients; [3]
  improvement of asynergia/dysmetria (finger-nose test) (patients improved/total): 3/5
  improvement of delicate movements (handwriting) (patients improved/total): 4/5
  improvement of gait ataxia (patients improved/total): 2/5
  improvement of muscle strength (patients improved/total): 5/5
FRDA patients; [4]
  general condition (in words): improvement
  hand clumsiness (in words): decrease
FRDA patients; ultrasound, three patients
  decrease of left ventricle mass index: -21 to -32%
  reduction of left ventricle wall: -8 to -20%
  reduction of septal thickness: -31 to -36%
Membrane lipids; 5 nM Fe^2+ + 60 μM idebenone, no succinate
  Iron-induced damages to: Lipids: -63 ± 4%
Membrane lipids; 5 nM Fe^2+ + 10 mM succinate + 60 μM idebenone
  Iron-induced damages to: Lipids: -1 ± 0.4%
Membrane lipids; 60 μM oxidized idebenone, 3 min, no succinate, FIG. 2A trace a
  protection against iron-induced lipoperoxidation (in words): No protection
Membrane lipids; idebenone reduced in situ by succinate (about 2 μM reduced), FIG. 2A trace b
  protection against iron-induced lipoperoxidation (in words): significant protection
Membrane lipids; longer incubation with succinate (12 μM reduced; 20% of total idebenone), FIG. 2A trace c
  protection against iron-induced lipoperoxidation (in words): enhanced
Membrane lipids; [5]
  protection of membrane lipids against iron injury (in words): efficiently protected
Complex II; [5]
  protection of membrane-anchored complex II against iron injury (in words): efficiently protected
Complex II
  protection of complex II from iron induced damages (in words): did not protect complex II
Complex II; succinate and 60 μM idebenone added simultaneously (20% of idebenone reduced), FIG. 2C trace c
  protection of complex II activity (in words): full protection

## O=C(O)CCC(=O)O [succinate]
Membrane lipids; 5 nM Fe^2+ + 10 mM succinate
  Iron-induced damages to: Lipids: -58 ± 3%
Membrane lipids; succinate alone
  protection of membrane lipids against iron-induced peroxidation (in words): failed to protect
Complex II
  protection of complex II from iron induced damages (in words): did not protect complex II

## SOD: superoxide dismutase, water-soluble antioxidant enzyme
aconitases
  Iron-induced damages to: Aconitases: -75 ± 1%
Membrane lipids
  iron-induced damages of the membrane components (in words): unable to prevent

## ferric chloride [Fe^3+]
Membrane lipids
  peroxidation of membrane lipids (in words): no damage was observed
Membrane lipids; listed as oxidized iron
  peroxidation of membrane lipids (in words): did not significantly after membrane lipids

## ferrous chloride [Fe^2+]
aconitases; 10 min incubation with 5 nM reduced iron, FIG. 1C trace b
  aconitase activity (in words): not affected
Membrane lipids; listed as Reduced iron
  peroxidation of membrane lipids (in words): triggered an immediate peroxidation of the membrane lipid
Membrane lipids; listed as reduced iron
  peroxidation of membrane lipids (in words): rapid lipoperoxidation
Complex II; 1 min incubation with 5 nM reduced iron, FIG. 1B trace c
  activity of complex II (in words): strongly affected

B1: catalase: water-soluble antioxidant enzyme (protein, UniProt P04040 2-527, looked up)
Catalase: ADSRDPASDQMQHWKEQRAAQKADVLTTGAGNPVGDKLNVITVGPRGPLLVQDVVFTDEMAHFDRERIPERVVHAKGAGAFGYFEVTHDITKYSKAKVFEHIGKKTPIAVRFSTVAGESGSADTVRDPRGFAVKFYTEDGNWDLVGNNTPIFFIRDPILFPSFIHSQKRNPQTHLKDPDMVWDFWSLRPESLHQVSFLFSDRGIPDGHRHMNGYGSHTFKLVNANGEAVYCKFHYKTDQGIKNLSVEDAARLSQEDPDYGIRDLFNAIATGKYPSWTFYIQVMTFNQAETFPFNPFDLTKVWPHKDYPLIPVGKLVLNRNPVNYFAEVEQIAFDPSNMPPGIEASPDKMLQGRLFAYPDTHRHRLGPNYLHIPVNCPYRARVANYQRDGPMCMQDNQGGAPNYYPNSFGAPEQQPSALEHSIQYSGEVRRFNTANDDNVTQVRAFYVNVLNEEQRKRLCENIAGHLKDAQIFIQKKAVKNFTEVHPDYGSHIQALLDKYNAEKPKNAIHTFVQSGSHLAAREKANL
aconitases
  Iron-induced damages to: Aconitases: -46 ± 2%
Membrane lipids
  iron-induced damages of the membrane components (in words): unable to prevent
